Values after ≈ are worked out from the molar mass of the structure shown. Like-named read-outs stand apart in the source and are kept apart here.
What was measured:
Assay in all cases: In-vitro antimicrobial activity primary screen (agar dilution MIC)
Assay type in all cases: cell-based
[1] = tested on: Staphylococcus aureus CMX 503A; settings: Staphylococcus aureus, CMX503A, 24 h, BHI agar, 20-24 h, read-out: MIC
Protocol: (§1) The antimicrobial spectra of several of the compounds of the present invention were tested as described below.
(§2) Twelve petri dishes containing successive aqueous dilutions of the test compounds, mixed with 10 mL of sterilized Brain Heart Infusion (BHI) agar (Difco 0418-01-5), were prepared. Each plate was inoculated with 1:100 (or 1:10 for slow growing strains (primarily Micrococcus and Streptococcus) dilutions of up to 32 different microorganisms, using a Steers replicator block. The inoculated plates were incubated at 35 37° C. for 20-24 hours. In addition, a control plate, using BHI agar containing no test compound, was prepared and incubated at the beginning and the end of each test.
(§3) An additional plate containing a compound having known susceptibility patterns for the organisms being tested and belonging to the same antibiotic class as the test compounds was also prepared and incubated as a further control, as well as to provide test-to test comparability. Erythromycin A was used for this purpose.
(§4) After incubation, each plate was read. The MIC (minimum inhibitory concentration) is defined as the lowest concentration of test compound yielding no growth, a slight haze, or sparsely isolated colonies on the inoculum spot as compared to the growth control containing no test compound.

[2] = tested on: Staphylococcus aureus CMX 686B; settings: CMX686B, BHI agar, 20-24 h, read-out: MIC
Protocol: as §1, §2, §3, §4

[3] = tested on: Staphylococcus aureus CMX 553; settings: Staphylococcus aureus, CMX553, 24 h, BHI agar, 20-24 h, read-out: MIC
Protocol: as §1, §2, §3, §4

[4] = tested on: Pseudomonas aeruginosa K799/WT
Protocol: as §1, §2
(§5) An additional plate containing a compound having known susceptibility patterns for the organisms being tested and belonging to the same antibiotic class as the test compounds was also prepared and incubated as a further control, as well as to provide test-to test comparability.
as §4

Escherichia coli SS = settings: BHI agar, 20-24 h, read-out: MIC
Protocol: as §1, §2, §5, §4

[5] = tested on: Klebsiella pneumoniae ATCC 8045
Protocol: as §1, §2, §5, §4

[6] = tested on: Enterococcus faecium ATCC 8043; settings: Enterococcus faecium, ATCC8043, 24 h
Protocol: as §1, §2, §5, §4

[7] = tested on: Pseudomonas aeruginosa A5007
Protocol: as §1, §2, §5, §4

Staphylococcus aureus 45 = settings: BHI agar, 20-24 h, read-out: MIC
Protocol: as §1, §2, §5, §4

[8] = tested on: Staphylococcus epidermidis 3519; settings: Staphylococcus epidermidis, 3519, 24 h, BHI agar, 20-24 h
Protocol: as §1, §2, §5, §4

[9] = tested on: Streptococcus agalactiae CMX 508; settings: Streptococcus agalactiae, CMX508, 24 h, BHI agar, 20-24 h
Protocol: as §1, §2, §5, §4

Acinetobacter SP CMX 669 = settings: Acinetobacter, SPCMX669, 24 h
Protocol: as §1, §2, §5, §4

Escherichia coli H560 = settings: Escherichia coli, H560, 24 h
Protocol: as §1, §2, §5, §4

[10] = tested on: Pseudomonas aeruginosa BMH10; settings: BHI agar, 20-24 h
Protocol: as §1, §2, §5, §4

Escherichia coli DC-2 = tested on: Escherichia coli DC-2
Protocol: as §1, §2, §5, §4

[11] = tested on: Staphylococcus aureus 45 RAR2; settings: Staphylococcus aureus, 45RAR2, 24 h, BHI agar, 20-24 h
Protocol: as §1, §2, §5, §4

[12] = tested on: Pseudomonas aeruginosa K799/61; settings: Pseudomonas aeruginosa K799/61, BHI agar, 20-24 h
Protocol: as §1, §2, §5, §4

Pseudomonas cepacia 2961 = settings: BHI agar, 20-24 h
Protocol: as §1, §2, §5, §4

[13] = tested on: Enterobacter aerogenes ATCC 13048; settings: Klebsiella aerogenes
Protocol: as §1, §2, §5, §4

[14] = tested on: Streptococcus pyrogenes EES61; settings: BHI agar, 20-24 h, read-out: MIC
Protocol: as §1, §2, §5, §4

Escherichia coli JUHL = tested on: Escherichia coli JUHL
Protocol: as §1, §2, §5, §4

[15] = tested on: Micrococcus luteus ATCC 4698; settings: Micrococcus luteus, ATCC4698, 24 h, BHI agar, 20-24 h
Protocol: as §1, §2, §5, §4

[16] = tested on: Streptococcus pyrogenes 2548 INDUC; settings: BHI agar, 20-24 h
Protocol: as §1, §2, §5, §4

[17] = tested on: Staphylococcus aureus A5177; settings: Staphylococcus aureus A5177; BHI agar, 20-24 h; read-out: MIC
Protocol: as §1, §2, §5, §4

[18] = tested on: Providencia stuartii CMX 640
Protocol: as §1, §2, §5, §4

[19] = tested on: Streptococcus bovis A5169; settings: Streptococcus equinus, BHI agar, 20-24 h
Protocol: as §1, §2, §5, §4

[20] = tested on: Micrococcus luteus ATCC 9341; settings: ATCC9341, BHI agar, 20-24 h, read-out: MIC
Protocol: as §1, §2, §5, §4

[21] = tested on: Staphylococcus aureus ATCC 6538P; settings: Staphylococcus aureus, ATCC6538P, 24 h, BHI agar, 20-24 h
Protocol: as §1, §2, §5, §4

Row | SMILES | MIC [1] [µg/mL] | MIC [2] [µg/mL] | MIC [3] [µg/mL] | MIC (Escherichia coli SS) [µg/mL] | MIC [6] [µg/mL] | MIC (Staphylococcus aureus 45) [µg/mL] | MIC [8] [µg/mL] | MIC [9] [µg/mL] | MIC [11] [µg/mL] | MIC [14] [µg/mL] | MIC [15] [µg/mL] | MIC [17] [µg/mL] | MIC [20] [µg/mL] | MIC [21] [µg/mL] | also measured
1 | CC[C@H]1OC(=O)[C@H](C)[C@@H](O[C@H]2C[C@@](C)(OC)[C@H](NCc3ccccc3)[C@H](C)O2)[C@H](C)[C@@H](O[C@@H]2O[C@H](C)C[C@H](N(C)C)[C@H]2O)[C@](C)(O)C[C@@H](C)[C@@H]2O[C@@]1(C)C(=O)[C@H]2C [Example 12, (4"R,9S)-9-Deoxo-4", 11,12-trideoxy-9,12-epoxy-11-oxo-4"-[(phenylmethyl)amino]erythromycin A] | 0.39 (≈ 0.484 µM) | 0.39 (≈ 0.484 µM) | 0.2 (≈ 0.248 µM) | 3.1 (≈ 3.85 µM) | 0.2 (≈ 0.248 µM) | 0.2 (≈ 0.248 µM) | 0.39 (≈ 0.484 µM) | 0.1 (≈ 0.124 µM) | 0.39 (≈ 0.484 µM) | 0.1 (≈ 0.124 µM) | 0.39 (≈ 0.484 µM) | 0.39 (≈ 0.484 µM) | 0.05 (≈ 0.0621 µM) | 0.39 (≈ 0.484 µM) | MIC ([4]; Pseudomonas aeruginosa, K799/WT, 24 h): 100 µg/mL (≈ 124 µM); MIC ([5]; Klebsiella pneumoniae, ATCC8045, 24 h): > 100 µg/mL; MIC ([7]; Pseudomonas aeruginosa, A5007, 24 h): > 100 µg/mL; MIC (Acinetobacter SP CMX 669): > 100 µg/mL; MIC (Escherichia coli H560): > 100 µg/mL; MIC ([10]; Pseudomonas aeruginosa, BMH10, 24 h): > 100 µg/mL; MIC (Escherichia coli DC-2; Escherichia coli, DC2, 24 h): > 100 µg/mL; MIC ([12]; Pseudomonas aeruginosa, K799/61, 24 h): 3.1 µg/mL (≈ 3.85 µM); MIC (Pseudomonas cepacia 2961; Burkholderia cepacia, 2961, 24 h): > 100 µg/mL; MIC ([13]; ATCC13048, 24 h): > 100 µg/mL; MIC (Escherichia coli JUHL; Escherichia coli, 24 h): > 100 µg/mL; MIC ([16]; Streptococcus, 2548INDUC, 24 h): 3.1 µg/mL (≈ 3.85 µM); MIC ([18]; Providencia stuartii, CMX640, 24 h): > 100 µg/mL; MIC ([19]; A5169, 24 h): 0.05 µg/mL (≈ 0.0621 µM)
2 | CC[C@H]1OC(=O)[C@H](C)[C@@H](O[C@H]2C[C@@](C)(OC)[C@H](NC(=O)OCc3ccccc3)[C@H](C)O2)[C@H](C)[C@@H](O[C@@H]2O[C@H](C)C[C@H](N(C)C)[C@H]2O)[C@](C)(O)C[C@@H](C)[C@@H]2O[C@@]1(C)C(=O)[C@H]2C [Example 7, (4"R,9S)-9-Deoxo-4",11,12-trideoxy-9,12-epoxy-11-oxo-4"-[[(phenylmethoxy)carbonyl]amino]erythromycin A] | 0.2 (≈ 0.236 µM) | 0.2 (≈ 0.236 µM) | 0.2 (≈ 0.236 µM) | 1.56 (≈ 1.84 µM) | 0.1 (≈ 0.118 µM) | 0.2 (≈ 0.236 µM) | 0.39 (≈ 0.459 µM) | 0.05 (≈ 0.0589 µM) | 0.39 (≈ 0.459 µM) | 0.1 (≈ 0.118 µM) | 0.2 (≈ 0.236 µM) | 0.39 (≈ 0.459 µM) | 0.05 (≈ 0.0589 µM) | 0.2 (≈ 0.236 µM) | MIC ([4]; Pseudomonas aeruginosa K799/WT, BHI agar, 20-24 h, read-out: MIC): 100 µg/mL (≈ 118 µM); MIC ([5]; ATCC8045, Klebsiella pneumoniae ATCC 8045, BHI agar, 20-24 h, read-out: MIC): 100 µg/mL (≈ 118 µM); MIC ([7]; Pseudomonas aeruginosa A5007, BHI agar, 20-24 h, read-out: MIC): > 100 µg/mL; MIC ([10]; read-out: MIC): 100 µg/mL (≈ 118 µM); MIC (Escherichia coli DC-2; DC2, Escherichia coli DC-2, BHI agar, 20-24 h, read-out: MIC): 100 µg/mL (≈ 118 µM); MIC ([12]; read-out: MIC): 0.78 µg/mL (≈ 0.919 µM); MIC (Pseudomonas cepacia 2961; Burkholderia cepacia, read-out: MIC): > 100 µg/mL; MIC ([13]; ATCC13048, Enterobacter aerogenes ATCC 13048, BHI agar, 20-24 h, read-out: MIC): 100 µg/mL (≈ 118 µM); MIC (Escherichia coli JUHL; Escherichia coli JUHL, BHI agar, 20-24 h, read-out: MIC): > 100 µg/mL; MIC ([16]; read-out: MIC): 0.39 µg/mL (≈ 0.459 µM); MIC ([18]; CMX640, Providencia stuartii CMX 640, BHI agar, 20-24 h, read-out: MIC): > 100 µg/mL; MIC ([19]; read-out: MIC): 0.1 µg/mL (≈ 0.118 µM)

Source: patent US5288709A, “Erythromycin derivatives” (priority 1991, dated 1994)
